Experimental data: ChEMBL document CHEMBL1157539, “Thousands of chemical starting points for antimalarial lead identification” (Nature, 2010)

What follows are molecules tested on Plasmodium falciparum (assay: GSK_TCMDC: Inhibition of Plasmodium falciparum 3D7 in whole erythrocytes, using parasite LDH activity as an index of growth.). Details: Plasmodium falciparum, 3D7.
Assay type: functional, organism-based
Work on `COc1ccc2c(N/N=C/c3ccccc3[N+](=O)[O-])cc(C)nc2c1` yielded an XC50 of 716 nM. Work on `COc1cc(Cn2ccc3c4c(N)nc(N)nc4ccc32)cc(OC)c1OC` yielded an XC50 of 9.34 nM. `CCNCc1ccc(-c2cc3ncnc(Nc4ccc(OCc5cccc(F)c5)c(Cl)c4)c3s2)[nH]1` showed an XC50 of 109 nM. `Cc1cc(NC(=O)Nc2cccc(N(C)C)c2)c2ccccc2n1` gave an XC50 of 201 nM. For `O=C(/C=C/c1ccc(Cl)c(Cl)c1)NC1CCN(CCNC(=O)c2cccc(Cl)c2)CC1`, the XC50 was 550 nM. With `COc1ccc(NC(=O)Nc2ccc(Nc3nc(C)cc(N(C)C)n3)cc2)cc1` the XC50 was 454 nM. `COCc1cccc(-c2cc(-c3ccc(S(C)(=O)=O)cc3)cnc2N)c1` was tested, and the XC50 was 1000 nM. `Nc1ccc(-c2ccc(NC(=O)Nc3cc(C(F)(F)F)ccc3F)cc2)cn1` showed an XC50 of 657 nM. `Cc1ccc(NC(=O)c2cc(Br)cc(N3CCCN(C)CC3)c2)cc1F` gave an XC50 of 1340 nM. In the case of `CC(C)(Oc1ccc(Cl)cc1)C(=O)NCCC1CCN(CCCCCNC(=O)/C=C/c2ccc(Cl)c(Cl)c2)CC1`, the XC50 is reported as 936 nM. `O=C(/C=C/c1ccc(Cl)c(Cl)c1)NCCCCCN1CCC(CCCNC(=O)Nc2ccc(C(F)(F)F)cc2)CC1` gave an XC50 of 872 nM. In the case of `Cc1cccc(C(=O)Nc2ccnc(N(C)CCCN(C)Cc3cccc(C#N)c3)c2)c1`, the XC50 is reported as 1320 nM. Work on `CCOC(=O)C(C)(C)Oc1ccc(C(=C2CC(C)(C)CC(C)(C)C2)c2ccc(O)cc2)cc1` yielded an XC50 of 1130 nM. For `CC(CCc1ccccc1)NCC(O)c1cccc([N+](=O)[O-])c1` (stereo not given), the XC50 was 858 nM. `O=C(NCCc1ccccc1)c1cc(-c2cccnc2)cnc1NCC1CC1` showed an XC50 of 847 nM. With `CNCCN(C)C(=O)Oc1c(Cl)c(C)nc(C)c1-c1ccc(Oc2ccc(OC(F)(F)F)cc2)cc1` the XC50 was 127 nM. With `O=S(=O)(NCCN1CCCC1)c1cccc(-c2ccccc2CNC2Cc3ccccc3C2)c1` the XC50 was 738 nM. Molecule `CN(C)c1ccc(CN2CCC(NC(=O)c3ccc(-c4ccccc4F)s3)CC2)cc1` has an XC50 of 1120 nM. `CCCNC(=O)c1ccc(N2CCC(c3ccccc3C)CC2)nc1` was tested, and the XC50 was 1520 nM. With `O=C(Nc1ccc(C(F)(F)F)cc1)c1ccc(S(=O)(=O)NC2CCN(CC3CCCCC3)C2)cc1` (stereo not given) the XC50 was 723 nM. `COc1ccc(CCN(C)CCOc2ccc(NC(=O)c3cc(SC)cc4c(=O)c5ccccc5[nH]c34)cc2)cc1OC` was tested, and the XC50 was 1400 nM. For `COCCNCc1ccc(-c2ccc3c(Nc4ccc(F)cc4Cl)ccnc3c2)o1`, the XC50 was 209 nM. In the case of `N=C(N)NN=CC(=O)Nc1ccc(C(F)(F)F)cc1`, the XC50 is reported as 932 nM. Molecule `CSC1=NC(=Nc2c(C)cccc2C)C2(CCCCC2)N1c1ccccc1Cl` has an XC50 of 817 nM. With `CCCC1(NC[C@@H](O)[C@H](Cc2ccccc2)NC(=O)c2cc(NCC)cc(N3CCCCS3(=O)=O)c2)CCC1` the XC50 was 720 nM. `Oc1ccc(CN2CCN(CCOC(c3ccccc3)c3ccccc3)CC2)cc1Cl` gave an XC50 of 806 nM. `CN(CCN(C)CC(O)c1ccc(Cl)c(Cl)c1)CC(O)c1ccc(Cl)c(Cl)c1` (stereo not given) was tested, and the XC50 was 1100 nM. `CN(C)c1ccc2c(c1)Sc1cc(N(C)C)ccc1N2C(=O)CCCC(=O)O` was tested, and the XC50 was 802 nM. Work on `O=C(Cc1ccc(NC(=O)c2ccc(O)c(-c3ccc(Cl)c(Cl)c3)c2)cc1)NCc1cccc(C(F)(F)F)c1` yielded an XC50 of 878 nM. `CC(Cc1ccc(OCc2ccccc2)cc1)Nc1nc(O)c2ccccc2n1` (stereo not given) gave an XC50 of 568 nM. `CCNc1cc(C)nc(Nc2ccc(NC(=O)c3c(F)cccc3Cl)cc2)n1` gave an XC50 of 1120 nM. `O=C(/C=C/c1ccc(Cl)c(Cl)c1)NCCCCCN1CCC(NC(=O)Nc2ccc(Br)cc2)CC1` was tested, and the XC50 was 567 nM. Molecule `CNC(=O)c1cnc(Nc2ccc(N3CCN(C)CC3)cc2)nc1Nc1cccc(OC)c1` has an XC50 of 752 nM. For `O=C(/C=C/c1ccc(Cl)c(Cl)c1)NCCCCCN1CCC(NC(=O)Nc2ccc([N+](=O)[O-])cc2)CC1`, the XC50 was 686 nM. Molecule `COc1ccc(CCN(C)CCCCc2ccc(NC(=O)c3cccc4c(=O)c5cc(F)ccc5sc34)cc2)cc1OC` has an XC50 of 897 nM. With `O=C(NCCCNc1nc2ccccc2[nH]1)c1cccc(OC(F)(F)F)c1` the XC50 was 566 nM. `NC(=O)c1ccccc1OCC(=O)Nc1cccc(-c2ccc(-c3nc4ccccc4[nH]3)cc2)c1` was tested, and the XC50 was 786 nM. For `CCOc1ccc2c(=NN=Cc3ccccn3)cc(C)[nH]c2c1`, the XC50 was 862 nM. Molecule `Cc1[nH]c2c(C)cc(NS(C)(=O)=O)cc2c1C1CCN(CC2CCN(C(=O)/C=C/c3ccc(Cl)c(Cl)c3)CC2)CC1` has an XC50 of 241 nM. `O=C(/C=C/c1ccc(Cl)c(Cl)c1)NCCC(CN1CCC(c2c[nH]c3ccccc23)CC1)c1ccccc1` (stereo not given) gave an XC50 of 570 nM. `Cc1ccc(NS(=O)(=O)c2ccc(C(C)N3CCC(N4CCCCC4)CC3)cc2)cc1C` (stereo not given) was tested, and the XC50 was 763 nM. `CN(C)C(=O)CN1CCN(c2ncnc(N3CCc4c([nH]c5ccccc45)[C@@H]3c3ccc4c(c3)CCO4)n2)CC1` gave an XC50 of 871 nM. In the case of `O=C(NCCCCN1CCC(c2ccc3ccccc3c2O)CC1)c1ccc(-c2ccc(Cl)cc2)cc1`, the XC50 is reported as 181 nM. `COc1ccc2cc(C(C)NC3CCN(c4cccc(NC(=O)c5ccncc5)c4)CC3)ccc2c1` (stereo not given) was tested, and the XC50 was 1550 nM. `Cc1cc(N[C@@H](CC(C)C)C(=O)Nc2ccccc2)nc(NCC2CCCCC2)n1` was tested, and the XC50 was 874 nM. `FC(F)(F)c1ccc(COc2cc(Cl)ccc2Cn2ccnc2)cc1` showed an XC50 of 649 nM. `CC(C)C[C@H](NC(=O)c1ccc(OCCN2CCOCC2)cc1)C(=O)N[C@H](/C=N/N1CCN(C)C1=O)CCc1ccccc1` was tested, and the XC50 was 294 nM. `Cc1cc(NC(=O)c2ccco2)ccc1OC1CCN(Cc2ccc(F)cc2)CC1` gave an XC50 of 588 nM. In the case of `COc1cccc(NC(=O)Nc2cc(-c3ccc4[nH]ncc4c3)cc3c2CNC3=O)c1`, the XC50 is reported as 117 nM. `COc1ccc(C2CC(=O)C3=C(C2)NC(C)=C(C(=O)OC(C)C)C3c2ccc(O)cc2)cc1OC` (stereo not given) was tested, and the XC50 was 278 nM. In the case of `COc1cccc(C(O)CNc2ccnc(Nc3cccc(-c4csc(C)n4)c3)n2)c1` (stereo not given), the XC50 is reported as 786 nM. `NC1CCCN(Cc2cccc(-c3ccc(-c4nc5ccccc5[nH]4)s3)c2)C1` (stereo not given) showed an XC50 of 585 nM. In the case of `CCCCCCOc1ccc(C(=O)NCCC2CCN(CCCCCNC(=O)C=Cc3ccc(Cl)c(Cl)c3)CC2)cc1`, the XC50 is reported as 656 nM. Molecule `O=C(Nc1cccc(-c2nn3ncccc3c2-c2ccnc(Nc3cccc(C(F)(F)F)c3)n2)c1)c1c(F)cccc1F` has an XC50 of 648 nM. `CCc1c(C)nc(-n2nc(C)cc2NC(=O)CCc2ccccc2)[nH]c1=O` was tested, and the XC50 was 752 nM. In the case of `Cc1ccc(Nc2ccnc(Nc3ccc(C)c(F)c3)n2)cc1O`, the XC50 is reported as 761 nM. For `Cn1c(NC2CCN(CC3CCN(C(=O)/C=C/c4ccc(Cl)c(Cl)c4)CC3)CC2)nc2ccccc21`, the XC50 was 148 nM. In the case of `Cc1cc(N(C)C)nc(Nc2ccc(NC(=O)c3cccc(F)c3)cc2)n1`, the XC50 is reported as 998 nM. In the case of `CC1(C)NC(N)=NC(=N)N1OCc1cccs1`, the XC50 is reported as 3.2 nM. For `CCCCc1ccc(-c2nc(NC(=O)Nc3[nH]c(-c4ccccc4)nc3C(=O)OCC)c(C(=O)OCC)[nH]2)cc1`, the XC50 was 752 nM. Work on `CC(NCC(O)Cn1c2ccccc2c2ccccc21)c1ccccc1` (stereo not given) yielded an XC50 of 931 nM. For `Cc1nc2nc(N)nc(N)c2c(C)c1Cc1ccccc1`, the XC50 was 248 nM. `Cc1cccc2nc(-c3ccc(-c4cccc(CNCCNC(=O)c5ccnn5C)c4)s3)[nH]c12` gave an XC50 of 216 nM. Work on `Cc1cc(C(=O)Nc2ccc(-c3nc4ccccc4[nH]3)cc2)ccc1[N+](=O)[O-]` yielded an XC50 of 671 nM. For `COc1ccc(CN2CCN(CCOC(c3ccccc3)c3ccccc3)CC2)c(O)c1`, the XC50 was 1190 nM. `O=[N+]([O-])c1ccc(/C=N/Nc2cc(-c3ccccc3)nc3ccccc23)o1` showed an XC50 of 863 nM. For `O=C(/C=C/c1ccc(Cl)c(Cl)c1)NCCCCCN1CCC(NC(=O)Nc2ccc(C(F)(F)F)cc2)CC1`, the XC50 was 750 nM. Molecule `CCN(CCCN1CCCCC1)c1cc(C)nc(Nc2ccc(Oc3ccccc3)cc2)n1` has an XC50 of 298 nM. Work on `COc1ccc(-c2cnc3[nH]cc(-c4ccc(C(=O)O)cc4)c3c2)cn1` yielded an XC50 of 541 nM. For `CN1CCC(Oc2cc(NC(=O)Nc3ccc(-c4ccncc4)c(C(F)(F)F)c3)ccc2Cl)CC1`, the XC50 was 780 nM.
